# Measured values taken from patent US20080227864A1, “Lhr1 Activators as Medicaments” (priority 2004, published 2008).
# Legend:
# [1] = system: APOAl mRNA levels in HepG2 cells; experiment: APOAl mRNA levels in HepG2 cells treated with compound (RT-QPCR); format: cell-based; details: 48 hours, 10 μm, vs vehicle (DMSO 0.1%), FIG. 4
# Procedure: HepG2 and CV1 cells (ATCC, Rockville, Md.) were maintained in Basic Eagle's medium (BME) supplemented with 2 mM glutamine, 1% non-essential amino acids and 10% (v/v) fetal calf serum (FCS) in an atmosphere of 5% CO2 at 37° C.
# Total cellular RNA was extracted using TRIZOL (Invitrogen). Real time quantitative PCR (RT-QPCR) assays were performed using an Applied Biosystems 7900 sequence detector. Total RNA (1 μg) was reverse transcribed with random hexamers using Taqman reverse-transcription reagents kit (Applied Biosystems) following the manufacturer's protocol. RNA expression levels were determined by Sybr green assays as described. 18SrRNA transcript was used as an internal control to normalize the variations for RNA amounts. Gene expression levels are expressed relative to 18S rRNA. Apo Al, Apo B, SR-Bl, SHP, LRH-1 and CYP7α mRNA levels were measured using the following oligonucleotides: For 18S: 5′-[…]-3′ and 5′-[…]-3′; for APO Al: 5′-[…]-3′ and 5′-[…]-3′; for Apo B: 5′-[…]-3′ and 5′-[…]-3′; for SR-Bl: 5′-[…]-3′ and 5′-[…]-3′; for SHP: 5′-[…]-3′ and 5′-[…]-3′; for LRH-1: 5′-[…]-3′ and 5′-[…]-3′; for CYP7α:5′-[…]-3′ and 5′-[…]-3′.
# HepG2 cells, cultured in 24-well plates, were treated for 48 hours with Compound I, 10 μm or vehicle (DMSO 0.1%) prior to harvest and determination of APOAl mRNA levels by RT-QPOCR as described in Example 1 above.
# [2] = target: T1, Human LRH-1 Ligand Binding Domain (Homo sapiens, UniProt O00482); experiment: LRH-1 LBD / TIF2 Box3 coactivator peptide recruitment assay (Eu/APC, Lance mode); format: biochemical; details: n of 44
# T1 construct: made in house; host or cells: E. coli BL21(DE3), pRSETa vector
# From the text: Human LRH-1 Ligand Binding Domain (LRH1 LBD) was expressed in E.coli strain BL21(DE3) as an amino-terminal polyhistidine tagged fusion protein. Expression was under the control of an IPTG inducible T7 promoter. DNA encoding this recombinant protein was subcloned into the pRSETa expression vector (Invitrogen). Sequence encoding the modified polyhistidine tag ([…]) was fused in frame to sequence encoding residues 248-501 of LRH-1. The coding sequence of Human LRH-1 LBD was derived from Genbank accession number U—93553.
# Purified LRH-1 LBD was desalted/buffer exchanged using PD-10 gel filtration columns into PBS [100 mM NaPhosphate, pH 7.2, 150 mM NaCl]. LRH-1 LBD was diluted to approximately 10 microM in PBS and five-fold molar excess of NHS-LC-Biotin (Pierce) was added in a minimal volume of PBS. This solution was incubated with gentle mixing for 60 minutes at ambient room temperature. The biotinylation modification reaction was stopped by the addition of 2000× molar excess of Tris-HCl, pH 8. […]
# The above solutions are gently mixed together to give a final preparation of 5E-9 M (5 nM) APC-labelled LRH1 LBD and 1E-8 M […] Europium-labelled TIF2 box3 peptide. […] The plates were incubated for 1 hr then read on Wallac Victor2 V in Lance mode for EU/APC. […]
# T1 sequence (O00482 288-541): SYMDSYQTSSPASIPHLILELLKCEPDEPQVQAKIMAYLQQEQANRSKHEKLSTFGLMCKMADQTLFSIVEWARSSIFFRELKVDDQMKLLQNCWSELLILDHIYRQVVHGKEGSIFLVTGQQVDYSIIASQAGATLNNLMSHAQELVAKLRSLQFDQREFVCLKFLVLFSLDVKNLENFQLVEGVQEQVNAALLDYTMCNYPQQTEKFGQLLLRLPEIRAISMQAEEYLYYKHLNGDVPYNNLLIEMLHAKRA
# T1 sequence (as listed by the source partner): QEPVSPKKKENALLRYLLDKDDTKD
structure (smiles),measurement,setting,value
CCC/C=C(\CCC)C1=C(c2ccccc2)[C@@]2(Nc3ccccc3)CCC[C@H]2C1 [Compound 1],APO Al gene expression (APOAl mRNA levels),[1],Induces APO Al Gene Expression
same,EC50,"[2]; LRH1 agonist activity, TIF2 Box3 peptide recruitment, read-out: ave pEC50 (converted)",257 nM
same,ave % basal (maximum observed increase in agonist activity compared to the vehicle control),[2],277 % basal
